System: SRS-A release
Assay: Inhibition of SRS-A release from sensitized guinea pig lung fragments challenged with ovalbumin (bioassay on guinea pig ileum)
Assay type: cell-based
Conditions: Cavia porcellus, read-out: Inhibition of SRS-A Release, Percent Inhibition; for inhibition at 30 µM: Drug Concentration 3 × 10^-5 M; for inhibition at 3 µM: Drug Concentration 3 × 10^-6 M; for inhibition at 10 µM: Drug Concentration 1 × 10^-5 M; for inhibition at 1 µM: Drug Concentration 1 × 10^-6 M
Protocol: Male, Hartley guinea pigs, usually 1-2 weeks old were sensitized with respect to ovalbumin by intraperitoneal administration of 0.15 ml. hyperimmune serum obtained from guinea pigs actively sensitized against ovalbumin. After 2 days or more, the animals were decapitated, lungs were excised and perfused through the pulmonary artery with Krebs' bicarbonate solution of the following composition in mmoles/liter: KCl, 4.6; CaCl2.2H2 O, 1.8; KH2 PO4, 1.2; MgSO4. 7H2 O, 1.2; NaCl, 118.2; NaHCO3, 24.8; and dextrose, 10.0.Poorly perfused and bloody areas were discarded. Normal lung was cut into 1 mm. cubes with a McIlwain tissue chopper, washed with Krebs' solution and divided into 400 mg. aliquots. The fragmented tissue was then incubated at 37° C. for 15 minutes in Krebs' solution containing indomethacin to optimize SRS-A release and an appropriate concentration of experimental drug. Antigen (ovalbumin) was then added to make a final concentration of 1×10^-5 g./ml. Fifteen minutes later, the incubation medium was decanted and centrifuged at 3,000×g at 4° C. for 5 minutes. The supernatant solution was collected and assayed for SRS-A using a computerized bioassay that employs the isolated guinea pig ileum (Fleisch et al., J. Pharmacol. Exp. Ther., 209, 238-243, (1979)). Release of SRS-A in the presence of an experimental drug was compared to a control sample and the results expressed as percent inhibition of SRS-A release.

Work on `O=C1C=C(Nc2ccccc2F)C(=O)c2nccnc21` [Example 5, 6-(2-fluoroanilino)-5,8-quinoxalinedione] yielded an inhibition at 30 µM of 83% and an inhibition at 3 µM of 12%.
Work on `CN(C1=CC(=O)c2nccnc2C1=O)c1ccccc1` [Example 4, 6-(N-methylanilino)-5,8-quinoxalinedione] yielded an inhibition at 10 µM of 18%, an inhibition at 1 µM of 22% and an inhibition at 30 µM of 59%.
`O=C1C=C(Nc2cccc(F)c2)C(=O)c2nccnc21` [Example 7, 6-(3-fluoroanilino)-5,8-quinoxalinedione] showed an inhibition at 10 µM of 67%, an inhibition at 1 µM of 22% and an inhibition at 30 µM of 81%. The inhibition at 3 µM was 48% and the inhibition at 0.3 µM (Drug Concentration 3 × 10^-7 M) was 6%.
`O=C1C=C(Nc2cccc(Cl)c2)C(=O)c2nccnc21` [Example 6, 6-(3-chloroanilino)-5,8-quinoxalinedione] gave an inhibition at 30 µM of 71% and an inhibition at 3 µM of 28%.
With `Cc1nc2c(nc1C)C(=O)C(Nc1ccccc1)=CC2=O` [Example 8, 6-anilino-2,3-dimethyl-5,8-quinoxalinedione] the inhibition at 1 µM was 31% and the inhibition at 3 µM was 40%.
Molecule `O=C1C=C(Nc2ccccc2)C(=O)c2nccnc21` [Example 3, 6-anilino-5,8-quinoxalinedione] has an inhibition at 1 µM of 8%, an inhibition at 30 µM of 75% and an inhibition at 3 µM of 22%.
